According to patent publication US11285133B2, “2- or 3-imidazolines as carbapenemases inhibitors” (priority 2017, dated 2022):
Marks after values point to notes of the source that are not given here.

What was measured:
Type in all cases: biochemical
OXA-48 Enzyme = OXA-48 Enzyme (Klebsiella pneumoniae, UniProt Q6XEC0); experiment: Imipenem hydrolysis monitored by UV absorbance slope, OXA-48 enzyme; details: for inhibition at 10 µM: read-out: OXA-48 Enzyme Inhibition at 10 μM; for OXA-48 Enzyme Inhibition at 10 μM: 10 μM compound
Procedure: (§1) These tests are conducted by comparing UV absorbance slope measurements of impenem alone, and then imipenem with the concerned 3-imidazolines at given concentrations in the presence of the enzyme. It was thus possible to monitor the hydrolysis of imipenem. Lower the value of the slope, the higher is the percentage of inhibition of the enzyme.

NDM-1 Enzyme = NDM-1 Enzyme (Klebsiella pneumoniae, UniProt C7C422); experiment: Imipenem hydrolysis monitored by UV absorbance slope, NDM-1 enzyme; details: 10 μM compound, starred cells in the IC50 column
Procedure: as §1

KPC Enzyme = KPC Enzyme (Klebsiella pneumoniae, UniProt Q9F663); experiment: Imipenem hydrolysis monitored by UV absorbance slope, KPC enzyme; details: for KPC Enzyme percentage of inhibition at 10 μM: 10 μM compound, starred cells in the IC50 column, ND = Not Detectable (at 10 μM); for inhibition at 10 µM: read-out: KPC Enzyme percentage of inhibition at 10 μM
Procedure: as §1

Chain of OXA-48 Enzyme (Q6XEC0 23-265 limits assumed): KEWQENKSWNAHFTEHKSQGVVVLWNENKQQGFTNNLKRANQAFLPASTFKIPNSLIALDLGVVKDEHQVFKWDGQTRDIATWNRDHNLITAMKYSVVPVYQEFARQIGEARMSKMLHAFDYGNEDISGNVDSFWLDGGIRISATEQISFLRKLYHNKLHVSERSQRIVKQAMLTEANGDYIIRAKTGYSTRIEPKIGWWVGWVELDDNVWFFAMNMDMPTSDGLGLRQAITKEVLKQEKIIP
Chain of KPC Enzyme (Q9F663 25-293, looked up): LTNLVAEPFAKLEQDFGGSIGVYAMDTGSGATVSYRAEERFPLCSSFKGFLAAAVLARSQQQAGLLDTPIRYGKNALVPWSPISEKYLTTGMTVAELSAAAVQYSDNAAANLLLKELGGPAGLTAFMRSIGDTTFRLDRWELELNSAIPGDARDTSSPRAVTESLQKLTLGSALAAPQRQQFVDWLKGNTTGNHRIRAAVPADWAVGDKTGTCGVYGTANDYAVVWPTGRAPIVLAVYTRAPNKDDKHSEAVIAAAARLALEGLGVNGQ
Chain of NDM-1 Enzyme (C7C422 29-270, looked up, species assumed): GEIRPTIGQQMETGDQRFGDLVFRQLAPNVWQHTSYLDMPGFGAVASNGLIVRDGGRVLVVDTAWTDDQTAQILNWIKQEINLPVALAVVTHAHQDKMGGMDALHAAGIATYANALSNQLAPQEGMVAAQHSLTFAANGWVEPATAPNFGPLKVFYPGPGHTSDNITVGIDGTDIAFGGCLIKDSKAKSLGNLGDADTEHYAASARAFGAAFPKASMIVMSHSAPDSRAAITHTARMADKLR

inhibition at 10 µM (OXA-48 Enzyme) | OXA-48 Enzyme Inhibition at 10 μM (OXA-48 Enzyme) | SMILES | other results
– | Not Detectable | COc1ccc(C2N=C(c3ccccc3)C(C)N2c2ccc(Cl)cc2)cc1 (centres unmarked) [Compound 4] | –
– | Not Detectable | COc1ccc(C2N=C(c3ccccc3)C(C)N2c2ccc(Br)cc2)cc1 (centres unmarked) [Compound 6] | inhibition at 10 µM (NDM-1 Enzyme; read-out: NDM-1 Enzyme percentage of inhibition at 10 μM): 20%
– | Not Detectable | COc1ccc(C2=NC(c3ccc(OC)cc3)N(c3ccc(OC)cc3)C2C)cc1 (centres unmarked) [Compound 7] | KPC Enzyme percentage of inhibition at 10 μM (KPC Enzyme): 18%*
– | Not Detectable | COc1ccc(C2=NC(c3ccccc3)N(c3ccc(OC)cc3)C2C)cc1 (centres unmarked) [Compound 11] | NDM-1 Enzyme percentage of inhibition at 10 μM (NDM-1 Enzyme): 20%*
– | Not Detectable | COc1ccc(N2C(C)C(c3ccc(Cl)cc3)=NC2c2ccc(Cl)cc2)cc1 (centres unmarked) [Compound 12] | inhibition at 10 µM (KPC Enzyme): 50%
– | Not Detectable | CC1C(c2ccccc2)=NC(c2ccccc2)N1c1ccc(Cl)cc1 (centres unmarked) [Compound 16] | KPC Enzyme percentage of inhibition at 10 μM (KPC Enzyme): 18%*
– | Not Detectable | CC1C(c2ccc(Cl)cc2)=NC(c2ccc(Cl)cc2)N1c1ccccc1 (centres unmarked) [Compound 18] | KPC Enzyme percentage of inhibition at 10 μM (KPC Enzyme): 14%*
– | 50% | CC1C(c2ccc(Cl)cc2)=NC(c2ccc(Cl)cc2)N1c1ccc(Cl)cc1 (centres unmarked) [Compound 19] | –
38% | – | C/C(=N\c1ccccc1)C1(c2ccc(Cl)cc2)N=C(c2ccc(Cl)cc2)N(c2ccccc2)C1C (centres unmarked) [Compound 24] | –
– | Not Detectable | C/C(=N\c1ccccc1)C1(c2ccccc2)N=C(c2ccccc2)N(c2ccccc2)C1C (centres unmarked) [Compound 25] | inhibition at 10 µM (KPC Enzyme): 30%
22% | – | C/C(=N\c1ccc(Cl)cc1)C1(c2ccccc2)N=C(c2ccccc2)N(c2ccc(Cl)cc2)C1C (centres unmarked) [Compound 26] | –
38% | – | C/C(=N\c1ccc(Br)cc1)C1(c2ccccc2)N=C(c2ccccc2)N(c2ccc(Br)cc2)C1C (centres unmarked) [Compound 27] | –
31% | – | C/C(=N\c1ccc(Cl)cc1)C1(c2ccc(Cl)cc2)N=C(c2ccc(Cl)cc2)N(c2ccc(Cl)cc2)C1C (centres unmarked) [Compound 28] | –
36% | – | C/C(=N\c1ccc(Br)cc1)C1(c2ccc(Cl)cc2)N=C(c2ccc(Cl)cc2)N(c2ccc(Br)cc2)C1C (centres unmarked) [Compound 29] | –

Continued, molecule first:

SMILES | inhibition at 10 µM (OXA-48 Enzyme) | OXA-48 Enzyme Inhibition at 10 μM (OXA-48 Enzyme) | other results
COc1ccc(C2N=C(c3ccccc3)C(C)N2c2ccccc2)cc1 (centres unmarked) [Compound 1] | 9% | – | –
COc1ccc(C2N=C(c3ccccc3)C(C)N2c2ccc(I)cc2)cc1 (centres unmarked) [Compound 2] | 9% | – | –
COc1ccc(C2N=C(c3ccccc3)C(C)N2c2ccc(OC)cc2)cc1 (centres unmarked) [Compound 3] | 11% | – | –
COc1ccc(C2N=C(c3ccccc3)C(C)N2c2ccc(C(F)(F)F)cc2)cc1 (centres unmarked) [Compound 5] | 19% | – | –
COc1ccc(C2=NC(c3ccccc3)N(c3ccccc3)C2C)cc1 (centres unmarked) [Compound 8] | – | Not Detectable | KPC Enzyme percentage of inhibition at 10 μM (KPC Enzyme): 23%*
COc1ccc(C2=NC(c3ccc(OC)cc3)N(c3ccccc3)C2C)cc1 (centres unmarked) [Compound 9] | – | Not Detectable | inhibition at 10 µM (KPC Enzyme): 40%
CC1C(c2ccccc2)=NC(c2ccccc2)N1c1ccccc1 (centres unmarked) [Compound 13] | – | Not Detectable | KPC Enzyme percentage of inhibition at 10 μM (KPC Enzyme): 23%*
CC1C(c2ccccc2)=NC(c2ccccc2)N1c1ccc(I)cc1 (centres unmarked) [Compound 14] | – | Not Detectable | –
CC1C(c2ccccc2)=NC(c2ccccc2)N1c1ccc(Br)cc1 (centres unmarked) [Compound 15] | – | Not Detectable | –
COc1ccc(N2C(C)C(c3ccccc3)=NC2c2ccccc2)cc1 (centres unmarked) [Compound 17] | – | Not Detectable | KPC Enzyme percentage of inhibition at 10 μM (KPC Enzyme): 17%*
